Data on 29 molecules can be found in patent US9624170B2, “4-(piperrazin-1-yl)-pyrrolidin-2-one compounds as monoacylglycerol lipase (MAGL) inhibitors” (TAKEDA PHARMACEUTICAL COMPANY LIMITED, priority 2013, dated 2017).

The term inhibition denotes the drop in the measured response relative to a control, in per cent. Broadly, the % inhibition is how much of the control response was suppressed. Read a low % inhibition as a response near the control.

Molecules are shown by their SMILES. Counter-ions that a name gives are not always drawn.

The target of one experiment is T1, human MAGL (His-hMAGL) (Homo sapiens, UniProt Q99685).
T1 construct: made in house; host or cells: Escherichia coli BL21(DE3)
T1 sequence (Q99685 1-303): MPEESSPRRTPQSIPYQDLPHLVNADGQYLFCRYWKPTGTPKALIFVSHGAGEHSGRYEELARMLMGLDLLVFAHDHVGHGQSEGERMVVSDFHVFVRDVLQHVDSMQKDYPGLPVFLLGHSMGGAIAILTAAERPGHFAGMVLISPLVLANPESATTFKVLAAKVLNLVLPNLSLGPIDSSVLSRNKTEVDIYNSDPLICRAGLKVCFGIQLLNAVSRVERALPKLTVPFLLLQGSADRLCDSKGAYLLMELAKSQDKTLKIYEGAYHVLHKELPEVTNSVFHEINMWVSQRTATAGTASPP
Kind of experiment: Measurement of MAGL inhibitory activity by mass spectrometry. As to conditions: 10 μM test compound; substrate 2-arachidonylglycerol, arachidonic acid by RapidFire-mass spectrometry. The format is biochemical. In outline: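 His-tagged human MAGL was reacted with 150 μM 2-arachidonylglycerol substrate (stock, added by 5 μL) for 10 min at room temperature, then stopped with formic acid. Arachidonic acid product was quantified by RapidFire–triple-quadrupole MS in negative SRM mode, corrected by arachidonic acid-d8, and converted to percent inhibition.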
For the molecule `O=C1Cc2cc(-c3cccc(N4CC(N5CCN(C(=O)c6nccs6)CC5)CC4=O)c3)ccc2N1` (centres unmarked) [Example 105, 5-(3-(2-oxo-4-(4-(1,3-thiazol-2-ylcarbonyl)piperazin-1-yl)pyrrolidin-1-yl)phenyl)-1,3-dihydro-2H-indol-2-one], the inhibition at 10 µM came out at 101%. For `NS(=O)(=O)c1cccc(-c2cccc(N3CC(N4CCN(C(=O)c5nccs5)CC4)CC3=O)c2)c1` (centres unmarked) [Example 103, 3′-(2-oxo-4-(4-(1,3-thiazol-2-ylcarbonyl)piperazin-1-yl)pyrrolidin-1-yl)biphenyl-3-sulfonamide], the inhibition at 10 µM worked out at 100%. For `NS(=O)(=O)c1ccc(-c2cccc(N3CC(N4CCN(C(=O)c5nccs5)CC4)CC3=O)c2)cc1` (centres unmarked) [Example 102, 3′-(2-oxo-4-(4-(1,3-thiazol-2-ylcarbonyl)piperazin-1-yl)pyrrolidin-1-yl)biphenyl-4-sulfonamide], the inhibition at 10 µM was 96%. `CCc1ccccc1-c1cccc(N2CC(N3CCN(C(=O)c4nccs4)CC3)CC2=O)c1` (centres unmarked) [Example 142, 1-(2′-ethylbiphenyl-3-yl)-4-(4-(1,3-thiazol-2-ylcarbonyl)piperazin-1-yl)pyrrolidin-2-one]: the inhibition at 10 µM is 100%. Still for that read-out and setting: the figure for `Cc1nc(C)c(-c2cccc(N3CC(N4CCN(C(=O)c5nccs5)CC4)CC3=O)c2)s1` (centres unmarked) [Example 161, 1-(3-(2,4-dimethyl-1,3-thiazol-5-yl)phenyl)-4-(4-(1,3-thiazol-2-ylcarbonyl)piperazin-1-yl)pyrrolidin-2-one] is 100%; for `Cc1ccc(-c2cccc(N3CC(N4CCN(C(=O)c5nccs5)CC4)CC3=O)c2)nc1` (centres unmarked) [Example 149, 1-(3-(5-Methylpyridin-2-yl)phenyl)-4-(4-(1,3-thiazol-2-ylcarbonyl)piperazin-1-yl)pyrrolidin-2-one] it is 96%.

Consider `O=C(c1nccs1)N1CCN(C2CC(=O)N(c3cccc(-c4ccsc4)c3)C2)CC1` (centres unmarked) [Example 94, 4-(4-(1,3-thiazol-2-ylcarbonyl)piperazin-1-yl)-1-(3-(3-thienyl)phenyl)pyrrolidin-2-one], for which the inhibition at 10 µM was found to be 99%. `O=C(c1cscn1)N1CCN(C2CC(=O)N(c3cccc(-c4ccccc4Cl)c3)C2)CC1` (centres unmarked) [Example 168, 1-(2′-chlorobiphenyl-3-yl)-4-(4-(1,3-thiazol-4-ylcarbonyl)piperazin-1-yl)pyrrolidin-2-one]: the inhibition at 10 µM was 101%. As for `Cc1cc(-c2cccc(N3CC(N4CCN(C(=O)c5nccs5)CC4)CC3=O)c2)n(C)n1` (centres unmarked) [Example 157, 1-(3-(1,3-dimethyl-1H-pyrazol-5-yl)phenyl)-4-(4-(1,3-thiazol-2-ylcarbonyl)piperazin-1-yl)pyrrolidin-2-one], the inhibition at 10 µM came out at 99%.

For the molecule `Cc1ccc(C)c(-c2cccc(N3CC(N4CCN(C(=O)c5nccs5)CC4)CC3=O)c2)c1` (centres unmarked) [Example 144, 1-(2′,5′-dirnethylbiphenyl-3-yl)-4-(4-(1,3-thiazol-2-ylcarbonyl)piperazin-1-yl)pyrrolidin-2-one], the inhibition at 10 µM came out at 101%.

The same experiment, now with this note: MAGL inhibitory rate, test compound 10 μM, His-hMAGL, substrate 2-arachidonylglycerol, RapidFire-mass spectrometry.
Consider `O=C(c1nccs1)N1CCN([C@@H]2CC(=O)N(c3ccc4c(ccn4-c4ncc(C(F)(F)F)cn4)c3)C2)CC1` [Example 257, (4R)-4-(4-(1,3-Thiazol-2-ylcarbonyl)piperazin-1-yl)-1-(1-(5-(trifluoromethyl)pyrimidin-2-yl)-1H-indol-5-yl)pyrrolidin-2-one hydrochloride], for which the inhibition at 10 µM stood at 99%.

On to `O=C(c1nccs1)N1CCN([C@@H]2CC(=O)N(c3ccc4c(cnn4-c4ccc(F)cc4)c3)C2)CC1` [Example 205, (4R)-1-(1-(4-fluorophenyl)-1H-indazol-5-yl)-4-(4-(1,3-thiazol-2-ylcarbonyl)piperazin-1-yl)pyrrolidin-2-one], for which the inhibition at 10 µM is 100%. Consider `Cc1ncccc1-c1cc(F)cc(N2C[C@H](N3CCN(c4ncccn4)CC3)CC2=O)c1` [Example 426, (4R)-1-(3-Fluoro-5-(2-methylpyridin-3-yl)phenyl)-4-(4-(pyrimidin-2-yl)piperazin-1-yl)pyrrolidin-2-one], for which the inhibition at 10 µM is 99%.

On to `O=C(c1nccs1)N1CCN([C@@H]2CC(=O)N(c3ccc4c(c3)CCN4c3cnc(C(F)(F)F)nc3)C2)CC1` [Example 391, (4R)-4-(4-(1,3-thiazol-2-ylcarbonyl)piperazin-1-yl)-1-(1-(2-(trifluoromethyl)pyrimidin-5-yl)-2,3-dihydro-1H-indol-5-yl)pyrrolidin-2-one], for which the inhibition at 10 µM worked out at 90%. In the case of `O=C(c1nccs1)N1CCN(C2CC(=O)N(c3cccc(-c4coc5ccccc45)c3)C2)CC1` (centres unmarked) [Example 328, 1-(3-(1-benzofuran-3-yl)phenyl)-4-(4-(1,3-thiazol-2-ylcarbonyl)piperazin-1-yl)pyrrolidin-2-one], the inhibition at 10 µM amounted to 102%.

Take `Cc1cccc(-n2ccc3cc(N4CC(N5CCN(C(=O)c6nccs6)CC5)CC4=O)ccc32)n1` (centres unmarked) [Example 238, 1-(1-(6-methylpyridin-2-yl)-1H-indol-5-yl)-4-(4-(1,3-thiazol-2-ylcarbonyl)piperazin-1-yl)pyrrolidin-2-one]: the inhibition at 10 µM came to 100%. For `Cc1cc(-c2cccc(N3CC(N4CCN(C(=O)c5nccs5)CC4)CC3=O)c2)ccn1` (centres unmarked) [Example 204, 1-(3-(2-methylpyridin-4-yl)phenyl)-4-(4-(1,3-thiazol-2-ylcarbonyl)piperazin-1-yl)pyrrolidin-2-one], the inhibition at 10 µM is 101%. For `Cc1ccc(-c2ccccc2)cc1N1CC(N2CCN(C(=O)c3nccs3)CC2)CC1=O` (centres unmarked) [Example 247, 1-(4-methylbiphenyl-3-yl)-4-(4-(1,3-thiazol-2-ylcarbonyl)piperazin-1-yl)pyrrolidin-2-one], the inhibition at 10 µM worked out at 99%.

In the case of `O=C(c1nccs1)N1CCN(C2CC(=O)N(c3cccc(-c4c(F)cc(F)cc4F)c3)C2)CC1` (centres unmarked) [Example 282, 4-(4-(1,3-thiazol-2-ylcarbonyl)piperazin-1-yl)-1-(2′,4′,6′-trifluorobiphenyl-3-yl)pyrrolidin-2-one], the inhibition at 10 µM is 100%.

In the case of `Cc1ccc(-c2cccc(N3CC(N4CCN(C(=O)c5nccs5)CC4)CC3=O)c2)c(C)n1` (centres unmarked) [Example 368, 1-(3-(2,6-dimethylpyridin-3-yl)phenyl)-4-(4-(1,3-thiazol-2-ylcarbonyl)piperazin-1-yl)pyrrolidin-2-one], the inhibition at 10 µM was 97%. For the molecule `O=C(c1nccs1)N1CCN(C2CC(=O)N(c3cccc(-c4csc5ccccc45)c3)C2)CC1` (centres unmarked) [Example 294, 1-(3-(1-benzothiophen-3-yl)phenyl)-4-(4-(1,3-thiazol-2-ylcarbonyl)piperazin-1-yl)pyrrolidin-2-one], the inhibition at 10 µM amounted to 100%.

As for `CC(C)(C)CC(=O)N1CCc2cc(N3C[C@H](N4CCN(C(=O)c5cscn5)CC4)CC3=O)ccc21` [Example 414, (4R)-1-(1-(3,3-dimethylbutanoyl)-2,3-dihydro-1H-indol-5-yl)-4-(4-(1,3-thiazol-4-ylcarbonyl)piperazin-1-yl)pyrrolidin-2-one], the inhibition at 10 µM amounted to 100%. As to `O=C(c1nccs1)N1CCN(C2CC(=O)N(c3cccc(-c4cccn5ccnc45)c3)C2)CC1` (centres unmarked) [Example 342, 1-(3-(imidazo[1,2-a]pyridin-8-yl)phenyl)-4-(4-(1,3-thiazol-2-ylcarbonyl)piperazin-1-yl)pyrrolidin-2-one], the inhibition at 10 µM came out at 100%. On to `O=C(c1cscn1)N1CCN([C@@H]2CC(=O)N(c3ccc4c(ccn4-c4ccc(Cl)cc4)c3)C2)CC1` [Example 423, (4R)-1-(1-(4-Chlorophenyl)-1H-indol-5-yl)-4-(4-(1,3-thiazol-4-ylcarbonyl)piperazin-1-yl)pyrrolidin-2-one], for which the inhibition at 10 µM is 98%.

For `O=C(c1nccs1)N1CCN(C2CC(=O)N(c3cccc(-c4csc5ncccc45)c3)C2)CC1` (centres unmarked) [Example 347, 4-(4-(1,3-thiazol-2-ylcarbonyl)piperazin-1-yl)-1-(3-(thieno[2,3-b]pyridin-3-yl)phenyl)pyrrolidin-2-one], the inhibition at 10 µM turned out to be 100%. In the case of `O=C(c1cscn1)N1CCN([C@@H]2CC(=O)N(c3ccc4c(c3)CCN4c3ccc(C(F)(F)F)cc3)C2)CC1` [Example 405, (4R)-4-(4-(1,3-Thiazol-4-ylcarbonyl)piperazin-1-yl)-1-(1-(4-(trifluoromethyl)phenyl)-2,3-dihydro-1H-indol-5-yl)pyrrolidin-2-one], the inhibition at 10 µM is 103%.

For the molecule `Cc1ncnc(C)c1-c1cccc(N2CC(N3CCN(C(=O)c4nccs4)CC3)CC2=O)c1` (centres unmarked) [Example 273, 1-(3-(4,6-Dimethylpyrimidin-5-yl)phenyl)-4-(4-(1,3-thiazol-2-ylcarbonyl)piperazin-1-yl)pyrrolidin-2-one], the inhibition at 10 µM came to 100%. Take `Cc1ccnc(C)c1-c1cccc(N2CC(N3CCN(C(=O)c4nccs4)CC3)CC2=O)c1` (centres unmarked) [Example 352, 1-(3-(2,4-dimethylpyridin-3-yl)phenyl)-4-(4-(1,3-thiazol-2-ylcarbonyl)piperazin-1-yl)pyrrolidin-2-one]: the inhibition at 10 µM is 102%.

Staying with this experiment, now noted: MAGL inhibitory rate, test compound 10 μM, His-hMAGL, substrate 2-arachidonylglycerol, RapidFire-mass spectrometry; 10 µM.
With `O=C1CC(N2CCN(c3ncccn3)CC2)CN1c1ccc2c(c1)CCN2c1ncc(C(F)(F)F)cn1` (stereo not drawn) [Example 430, 4-(4-(Pyrimidin-2-yl)piperazin-1-yl)-1-(1-(5-(trifluoromethyl)pyrimidin-2-yl)-2,3-dihydro-1H-indol-5-yl)pyrrolidin-2-one (optical isomer)], the “% inhibition at 10 μM” value was 85%.
